Assay results reported in article PMC9953353 (2023).

How the values were obtained:
[1] = test system: Thi-5R-18 (DNA, aptamer) ATAGGAGTCACGACGACCAGAAGGGCAAATAGCATAATGGATCACATTAGATGAGCCCAGGCTATGTGCGTCTACCTCTTGACTAAT; assay: AuNP colorimetric aptasensor; details: NaCl 0.25 M added for aggregation; 10^−7 M tested; response below one tenth of thiamethoxam at 10^−8 M
[2] = test system: Thi-5R-18 (DNA, aptamer) ATAGGAGTCACGACGACCAGAAGGGCAAATAGCATAATGGATCACATTAGATGAGCCCAGGCTATGTGCGTCTACCTCTTGACTAAT; assay: isothermal titration calorimetry; details: 5 mM KCl, 100 mM NaCl, 1 mM MgCl2; 50 mM Tris-HCl, pH 7.4, 25 °C; 25 μM aptamer, 1 mM thiamethoxam
[3] = test system: truncated Thi-5R-18 (DNA, aptamer) GAAGGGCAAATAGCATAATGGATCACATTAGATGAGCCCAGGCTATGTGCG; assay: isothermal titration calorimetry; details: 5 mM KCl, 100 mM NaCl, 1 mM MgCl2; 50 mM Tris-HCl, pH 7.4, 25 °C; Kd could not be fitted; thiamethoxam 1 mM

binding [1] | Kd [2] [µM] | binding [3] | Structure (SMILES)
weak |  |  | CNC(=N[N+](=O)[O-])NCC1CCOC1 (stereo not drawn)
weak |  |  | O=[N+]([O-])N=C1NCCN1Cc1ccc(Cl)nc1
weak |  |  | O=C(O)CNCP(=O)(O)O
 | 49.35 | no | CN1COCN(Cc2cnc(Cl)s2)C1=N[N+](=O)[O-]
weak |  |  | CN/C(=N\[N+](=O)[O-])NCc1cnc(Cl)s1
